This assay deals with T1, human TRPM8 (Homo sapiens, UniProt Q7Z2W7).
T1 construct: expressed in transfected cells; host or cells: Chinese hamster ovary (CHO) cells, T-REx tetracycline-inducible system, co-transfected with aequorin
The assay can be described thus: Luminescence readout assay for measuring intracellular calcium, icilin activation. Format: cell-based. The settings on record: CHO cells expressing human TRPM8, aequorin luminescence, 1 μM icilin activation; read-out: hTRPM8 IC50. In short, it runs like this: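 The read-out was luminescence reporting intracellular calcium, recorded by a CCD-based luminometer. Compounds were preincubated for 2.5 min before agonist challenge with 1 μM icilin. Human TRPM8 was expressed in a stable T-REx CHO line, induced with 0.5 μg/mL tetracycline the day before.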

Molecules are shown by their SMILES.

T1 sequence (Q7Z2W7 whole entry): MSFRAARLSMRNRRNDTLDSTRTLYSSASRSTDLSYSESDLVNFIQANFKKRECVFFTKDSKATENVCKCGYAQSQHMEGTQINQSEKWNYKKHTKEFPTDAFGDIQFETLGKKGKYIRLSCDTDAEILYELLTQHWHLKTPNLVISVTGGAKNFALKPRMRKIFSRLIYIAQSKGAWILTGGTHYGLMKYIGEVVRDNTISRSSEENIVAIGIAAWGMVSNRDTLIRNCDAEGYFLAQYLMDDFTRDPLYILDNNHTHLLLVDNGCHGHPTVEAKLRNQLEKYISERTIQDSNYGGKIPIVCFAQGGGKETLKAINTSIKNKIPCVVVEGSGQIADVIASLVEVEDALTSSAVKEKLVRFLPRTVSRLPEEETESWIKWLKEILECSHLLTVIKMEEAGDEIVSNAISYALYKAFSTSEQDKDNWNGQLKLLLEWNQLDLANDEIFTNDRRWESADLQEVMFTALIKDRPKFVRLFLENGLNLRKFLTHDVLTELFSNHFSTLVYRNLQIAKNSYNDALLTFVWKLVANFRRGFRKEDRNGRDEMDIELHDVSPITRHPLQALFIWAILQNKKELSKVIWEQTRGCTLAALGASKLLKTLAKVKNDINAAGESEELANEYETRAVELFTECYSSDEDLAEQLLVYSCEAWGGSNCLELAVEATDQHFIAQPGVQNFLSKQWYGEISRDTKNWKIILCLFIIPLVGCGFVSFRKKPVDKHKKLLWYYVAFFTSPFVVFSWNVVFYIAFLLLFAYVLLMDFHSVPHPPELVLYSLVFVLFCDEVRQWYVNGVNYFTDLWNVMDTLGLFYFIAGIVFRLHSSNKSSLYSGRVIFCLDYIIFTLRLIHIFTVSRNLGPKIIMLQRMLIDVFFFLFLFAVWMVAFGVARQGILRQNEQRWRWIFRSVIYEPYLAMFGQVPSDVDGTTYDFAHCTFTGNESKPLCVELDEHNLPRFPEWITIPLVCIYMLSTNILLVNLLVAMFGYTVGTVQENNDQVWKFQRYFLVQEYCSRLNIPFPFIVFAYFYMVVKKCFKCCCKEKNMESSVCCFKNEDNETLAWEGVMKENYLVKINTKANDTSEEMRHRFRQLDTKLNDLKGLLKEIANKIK

Usually IC50 stands for the concentration at which inhibition is half-maximal. For `O=C(N[C@@H](c1ccc(C(F)(F)F)cc1)c1ncccc1C(F)(F)F)c1ccc2cn[nH]c2c1` [Example 175, (S)-N-((4-(trifluoromethyl)phenyl)(3-(trifluoromethyl)pyridin-2-yl)methyl)-1H-indazole-6-carboxamide], the IC50 was 30.3 nM.
For the molecule `N#Cc1ccc(C(=O)N[C@@H](c2ccc(C(F)(F)F)cc2)c2ncccc2C(F)(F)F)nc1` [Example 275, (S)-5-Cyano-N-((4-(trifluoromethyl)phenyl)(3-(trifluoro-methyl)pyridin-2-yl)methyl)picolinamide], the IC50 came out at 68.6 nM.
As for `O=C(N[C@@H](c1ccc(OC(F)(F)F)c(F)c1)c1ncccc1F)c1c[nH]c(=O)c(F)c1` [Example 400, (S)-5-fluoro-N-((3-fluoro-4-(trifluoromethoxy)phenyl)(3-fluoropyridin-2-yl)methyl)-6-oxo-1,6-dihydropyridine-3-carboxamide], the IC50 came out at 6.9 nM.
With `O=C(Cn1ccnc1)N[C@@H](c1ccc(C(F)(F)F)cc1)c1ncccc1C(F)(F)F` [Example 161, (S)-2-(1H-imidazol-1-yl)-N-((4-(trifluoromethyl)phenyl)(3-(trifluoromethyl)pyridin-2-yl)methyl)acetamide 2,2,2-trifluoroacetate], the half-inhibitory concentration (IC50) turned out to be 3370 nM.
On to `COc1ccc(C(=O)NC(c2ccc(C(F)(F)F)cc2)c2ncccc2F)cn1` (stereo not drawn) [Example 35, N-((3-fluoropyridin-2-yl)(4-(trifluoromethyl)phenyl)methyl)-6-methoxynicotinamide], for which the half-maximal inhibitory concentration (IC50) worked out at 19.6 nM.
The result for `COc1ccc2cc([C@H](NC(=O)c3ccc4cccnc4c3)c3ncccc3C(F)(F)F)cnc2c1` [Example 8, (S)-N-((7-methoxyquinolin-3-yl)(3-(trifluoromethyl)pyridin-2-yl)methyl)quinoline-7-carboxamide] reads 54.3 nM; that for `COc1ncc(C(=O)N[C@@H](c2ccc(C(F)(F)F)cc2)c2ncccc2F)cn1` [Example 264, (S)—N-((3-Fluoropyridin-2-yl)(4-(trifluoromethyl)phenyl)methyl)-2-methoxypyrimidine-5-carboxamide], 253 nM.
In the case of `O=C(N[C@@H](c1ccc(I)cc1)c1ncccc1C(F)(F)F)c1ccc(=O)[nH]c1` (stereo in doubt) [Example 376, N-((4-iodophenyl)(3-(trifluoromethyl)pyridin-2-yl)methyl)-6-oxo-1,6-dihydropyridine-3-carboxamide], the IC50 amounted to 53 nM.
The result for `Cc1cc(C(=O)N[C@@H](c2ccc(OC(F)(F)F)c(F)c2)c2ncccc2F)c[nH]c1=O` [Example 403, (S)-N-((3-fluoro-4-(trifluoromethoxy)phenyl)(3-fluoropyridin-2-yl)methyl)-5-methyl-6-oxo-1,6-dihydropyridine-3-carboxamide] reads 17.8 nM; that for `COc1ccc(C(=O)N[C@@H](c2ccc(OC(F)(F)F)c(F)c2)c2ncccc2F)[nH]c1=O` [Example 404, (S)-N-((3-fluoro-4-(trifluoromethoxy)phenyl)(3-fluoropyridin-2-yl)methyl)-5-methoxy-6-oxo-1,6-dihydropyridine-2-carboxamide], 3550 nM; that for `Cn1cc(C(=O)N[C@@H](c2ccc(C(F)(F)F)cc2)c2ncccc2Cl)ccc1=O` [Example 249, (S)-N-((3-chloropyridin-2-yl)(4-(trifluoromethyl)phenyl)methyl)-1-methyl-6-oxo-1,6-dihydropyridine-3-carboxamide 2,2,2-trifluoroacetate], 13.2 nM.
For `Cc1ncncc1C(=O)N[C@@H](c1ccc(C(F)(F)F)cc1)c1ncccc1C(F)(F)F` [Example 60, (S)-4-methyl-N-((4-(trifluoromethyl)phenyl)(3-(trifluoromethyl)pyridin-2-yl)methyl)pyrimidine-5-carboxamide] the value was 78.4 nM.
On to `Cc1nc2cc(C(=O)N[C@@H](c3ccc(C(F)(F)F)cc3)c3ncccc3F)ccc2[nH]1` [Example 397, (S)-N-((3-fluoropyridin-2-yl)(4-(trifluoromethyl)phenyl)methyl)-2-methyl-1H-benzo[d]imidazole-5-carboxamide], for which the IC50 was 10.3 nM.
Turning to `O=C(N[C@@H](c1ccc(C(F)(F)F)cc1)c1ncccc1C(F)(F)F)c1ccc2nccc(Cl)c2c1` [Example 116, (S)-4-chloro-N-((4-(trifluoromethyl)phenyl)(3-(trifluoromethyl)pyridin-2-yl)methyl)quinoline-6-carboxamide 2,2,2-trifluoroacetate], the IC50 is 42.9 nM.
Take `O=C(N[C@@H](c1ccc(C(F)(F)F)cc1)c1ncccc1C(F)(F)F)c1ccc(O)cn1` [Example 64, (S)-5-hydroxy-N-((4-(trifluoromethyl)phenyl)(3-(trifluoromethyl)pyridin-2-yl)methyl)picolinamide]: the IC50 was 20 nM.
For the molecule `O=C(N[C@@H](c1ccc(C(F)(F)F)cc1)c1ncccc1C(F)(F)F)c1ccc2cccnc2n1` [Example 128, (S)-N-((4-(trifluoromethyl)phenyl)(3-(trifluoromethyl)pyridin-2-yl)methyl)-1,8-naphthyridine-2-carboxamide 2,2,2-trifluoroacetate], the IC50 was 125 nM.
With `O=C(N[C@@H](c1ccc(C(F)(F)F)cc1)c1ncccc1C(F)(F)F)c1cccc(C(=O)c2ccccc2)c1` [Example 246, (S)-3-benzoyl-N-((4-(trifluoromethyl)phenyl)(3-(trifluoromethyl)pyridin-2-yl)methyl)benzamide 2,2,2-trifluoroacetate], the IC50 was 210 nM.
With `O=C(N[C@@H](c1ccc(C(F)(F)F)cc1)c1ncccc1F)c1ccccn1` [Example 194, (S)-N-((3-fluoropyridin-2-yl)(4-(trifluoromethyl)phenyl)methyl)picolinamide], the 50% inhibitory concentration (IC50) was 75.6 nM.
For `Cn1cc(C(=O)N[C@@H](c2ccc(Cl)c(Cl)c2)c2ncccc2F)ccc1=O` [Example 251, (S)-N-((3,4-dichlorophenyl)(3-fluoropyridin-2-yl)methyl)-1-methyl-6-oxo-1,6-dihydropyridine-3-carboxamide 2,2,2-trifluoroacetate], the IC50 was determined as 19.3 nM.
On to `O=C(NC(c1ccc(OC(F)(F)F)c(F)c1)c1cc(F)ccc1F)c1ccc(=O)[nH]c1` (stereo not drawn) [Example 414, N-((2,5-difluorophenyl)(3-fluoro-4-(trifluoromethoxy)phenyl)methyl)-6-oxo-1,6-dihydropyridine-3-carboxamide], for which the IC50 came to 150 nM.
In the case of `O=C(N[C@@H](c1ccc(OC(F)(F)F)c(F)c1)c1ccccn1)c1ccc2[nH]c(=O)oc2c1` [Example 391, (S)-N-((3-fluoro-4-(trifluoromethoxy)phenyl)(pyridin-2-yl)methyl)-2-oxo-2,3-dihydrobenzo[d]oxazole-6-carboxamide], the concentration for half-maximal inhibition (IC50) was 11.7 nM.
For the molecule `CC(C)(O)c1ccc(C(=O)N[C@@H](c2ccc(C(F)(F)F)cc2)c2ncccc2C(F)(F)F)cc1` [Example 121, (S)-4-(2-hydroxypropan-2-yl)-N-((4-(trifluoromethyl)phenyl)(3-(trifluoromethyl)pyridin-2-yl)methyl)benzamide], the IC50 is 247 nM.
Turning to `CC#Cc1cccnc1[C@@H](NC(=O)c1ccc(OC)cc1)c1ccc(C(F)(F)F)cc1` [Example 95, (S)-4-methoxy-N-((3-(prop-1-yn-1-yl)pyridin-2-yl)(4-(trifluoromethyl)phenyl)methyl)benzamide 2,2,2-trifluoroacetate], the IC50 was 57.2 nM.
As to `COc1ncccc1C(=O)N[C@@H](c1ccc(C(F)(F)F)cc1)c1ncccc1C(F)(F)F` [Example 29], the IC50 is 32.4 nM.
